In article PMC4042160, “In silico, in vitro and cellular analysis with a kinome-wide inhibitor panel correlates cellular LRRK2 dephosphorylation to inhibitor activity on LRRK2” (Frontiers in Molecular Neuroscience, 2014):

Key:
LRRK2 phospho-Ser935 = target: T1, LRRK2 phospho-Ser935 (Homo sapiens, UniProt Q5S007); test: Cellular LRRK2 phosphoserine 935 dephosphorylation spotblot assay in SH-SY5Y cells stably expressing 3xFlag-LRRK2; type: cell-based; conditions: for Phosphorylation level relative to solvent (%) (cellular pS935 assay): @ 5 μM for 2 h, SH-SY5Y stably expressing LRRK2, pS935/total LRRK2; for Cellular pS935 (% @ 5 μM): pS935 level as % of control, 5 μM for 2 h; for IC50: read-out: IC50 cellular (pS935)
T1 construct: expressed in transfected cells

[1] = target: T2, GST-tagged truncated LRRK2 containing residues 970 to 2527 (Homo sapiens, UniProt Q5S007); test: In vitro LRRKtide peptide-substrate kinase assay, single dose testing (10 μM); type: biochemical; conditions: LRRKtide assay @ 10 μM inhibitor; GST-LRRK2 970-2527; 10 μM ATP; mean, N = 3; solvent control = 100%
T2 construct: GST-tagged truncated LRRK2 containing residues 970 to 2527 (Life Technologies); purchased Life Technologies

[2] = target: T3, full length LRRK2 protein (Homo sapiens, UniProt Q5S007); test: In vitro LRRKtide kinase assay with full length recombinant LRRK2, dose-response (IC50/pIC50); type: biochemical; conditions: LRRKtide phosphorylation, dose-response; for IC50: read-out: IC50 in vitro (lrrktide)
T3 construct: compounds were tested in triplicate with full length LRRK2 protein; made in house

[3] = SH-SY5Y cells with stable expression of LRRK2
[4] = pS935 dephosphorylation, SH-SY5Y cells with stable expression of LRRK2

T2 sequence (Q5S007 970-2527): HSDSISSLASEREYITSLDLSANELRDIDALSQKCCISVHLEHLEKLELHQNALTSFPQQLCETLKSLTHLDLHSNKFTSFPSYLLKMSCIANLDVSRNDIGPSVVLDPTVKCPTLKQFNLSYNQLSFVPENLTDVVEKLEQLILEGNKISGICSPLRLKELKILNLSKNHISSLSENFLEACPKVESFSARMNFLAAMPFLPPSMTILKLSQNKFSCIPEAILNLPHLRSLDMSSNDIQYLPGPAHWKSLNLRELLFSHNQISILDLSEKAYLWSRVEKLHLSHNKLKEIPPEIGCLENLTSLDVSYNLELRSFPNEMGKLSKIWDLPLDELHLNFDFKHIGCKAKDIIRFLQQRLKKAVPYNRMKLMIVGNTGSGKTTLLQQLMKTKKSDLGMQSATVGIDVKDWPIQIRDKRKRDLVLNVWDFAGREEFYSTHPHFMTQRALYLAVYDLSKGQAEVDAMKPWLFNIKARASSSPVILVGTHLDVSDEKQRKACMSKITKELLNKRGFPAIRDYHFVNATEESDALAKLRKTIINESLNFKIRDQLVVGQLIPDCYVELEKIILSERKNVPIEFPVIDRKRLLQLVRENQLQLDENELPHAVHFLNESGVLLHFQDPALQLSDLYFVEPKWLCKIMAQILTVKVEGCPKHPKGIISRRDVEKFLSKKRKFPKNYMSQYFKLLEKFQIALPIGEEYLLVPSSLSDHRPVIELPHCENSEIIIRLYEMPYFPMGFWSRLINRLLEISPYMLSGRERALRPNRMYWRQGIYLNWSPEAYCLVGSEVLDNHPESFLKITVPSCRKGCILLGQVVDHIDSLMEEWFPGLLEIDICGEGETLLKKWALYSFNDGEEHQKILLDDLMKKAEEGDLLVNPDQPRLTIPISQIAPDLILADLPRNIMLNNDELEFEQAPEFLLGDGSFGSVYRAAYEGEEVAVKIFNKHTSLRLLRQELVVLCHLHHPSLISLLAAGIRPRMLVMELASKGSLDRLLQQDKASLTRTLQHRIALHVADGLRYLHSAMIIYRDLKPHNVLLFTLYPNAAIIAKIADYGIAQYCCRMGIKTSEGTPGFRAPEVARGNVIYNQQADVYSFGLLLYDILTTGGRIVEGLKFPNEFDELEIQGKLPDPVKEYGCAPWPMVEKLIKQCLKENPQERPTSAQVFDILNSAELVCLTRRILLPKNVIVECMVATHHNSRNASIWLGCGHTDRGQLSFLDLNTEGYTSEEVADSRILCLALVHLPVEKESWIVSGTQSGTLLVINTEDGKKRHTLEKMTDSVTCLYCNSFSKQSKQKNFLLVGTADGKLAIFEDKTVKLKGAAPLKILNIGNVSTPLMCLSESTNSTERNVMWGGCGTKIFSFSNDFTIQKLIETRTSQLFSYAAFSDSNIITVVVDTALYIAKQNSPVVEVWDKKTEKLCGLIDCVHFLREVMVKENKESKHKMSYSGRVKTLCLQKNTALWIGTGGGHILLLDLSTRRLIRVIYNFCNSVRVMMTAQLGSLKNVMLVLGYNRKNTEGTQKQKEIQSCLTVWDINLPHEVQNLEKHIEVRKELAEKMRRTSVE
T1 sequence (Q5S007 whole entry): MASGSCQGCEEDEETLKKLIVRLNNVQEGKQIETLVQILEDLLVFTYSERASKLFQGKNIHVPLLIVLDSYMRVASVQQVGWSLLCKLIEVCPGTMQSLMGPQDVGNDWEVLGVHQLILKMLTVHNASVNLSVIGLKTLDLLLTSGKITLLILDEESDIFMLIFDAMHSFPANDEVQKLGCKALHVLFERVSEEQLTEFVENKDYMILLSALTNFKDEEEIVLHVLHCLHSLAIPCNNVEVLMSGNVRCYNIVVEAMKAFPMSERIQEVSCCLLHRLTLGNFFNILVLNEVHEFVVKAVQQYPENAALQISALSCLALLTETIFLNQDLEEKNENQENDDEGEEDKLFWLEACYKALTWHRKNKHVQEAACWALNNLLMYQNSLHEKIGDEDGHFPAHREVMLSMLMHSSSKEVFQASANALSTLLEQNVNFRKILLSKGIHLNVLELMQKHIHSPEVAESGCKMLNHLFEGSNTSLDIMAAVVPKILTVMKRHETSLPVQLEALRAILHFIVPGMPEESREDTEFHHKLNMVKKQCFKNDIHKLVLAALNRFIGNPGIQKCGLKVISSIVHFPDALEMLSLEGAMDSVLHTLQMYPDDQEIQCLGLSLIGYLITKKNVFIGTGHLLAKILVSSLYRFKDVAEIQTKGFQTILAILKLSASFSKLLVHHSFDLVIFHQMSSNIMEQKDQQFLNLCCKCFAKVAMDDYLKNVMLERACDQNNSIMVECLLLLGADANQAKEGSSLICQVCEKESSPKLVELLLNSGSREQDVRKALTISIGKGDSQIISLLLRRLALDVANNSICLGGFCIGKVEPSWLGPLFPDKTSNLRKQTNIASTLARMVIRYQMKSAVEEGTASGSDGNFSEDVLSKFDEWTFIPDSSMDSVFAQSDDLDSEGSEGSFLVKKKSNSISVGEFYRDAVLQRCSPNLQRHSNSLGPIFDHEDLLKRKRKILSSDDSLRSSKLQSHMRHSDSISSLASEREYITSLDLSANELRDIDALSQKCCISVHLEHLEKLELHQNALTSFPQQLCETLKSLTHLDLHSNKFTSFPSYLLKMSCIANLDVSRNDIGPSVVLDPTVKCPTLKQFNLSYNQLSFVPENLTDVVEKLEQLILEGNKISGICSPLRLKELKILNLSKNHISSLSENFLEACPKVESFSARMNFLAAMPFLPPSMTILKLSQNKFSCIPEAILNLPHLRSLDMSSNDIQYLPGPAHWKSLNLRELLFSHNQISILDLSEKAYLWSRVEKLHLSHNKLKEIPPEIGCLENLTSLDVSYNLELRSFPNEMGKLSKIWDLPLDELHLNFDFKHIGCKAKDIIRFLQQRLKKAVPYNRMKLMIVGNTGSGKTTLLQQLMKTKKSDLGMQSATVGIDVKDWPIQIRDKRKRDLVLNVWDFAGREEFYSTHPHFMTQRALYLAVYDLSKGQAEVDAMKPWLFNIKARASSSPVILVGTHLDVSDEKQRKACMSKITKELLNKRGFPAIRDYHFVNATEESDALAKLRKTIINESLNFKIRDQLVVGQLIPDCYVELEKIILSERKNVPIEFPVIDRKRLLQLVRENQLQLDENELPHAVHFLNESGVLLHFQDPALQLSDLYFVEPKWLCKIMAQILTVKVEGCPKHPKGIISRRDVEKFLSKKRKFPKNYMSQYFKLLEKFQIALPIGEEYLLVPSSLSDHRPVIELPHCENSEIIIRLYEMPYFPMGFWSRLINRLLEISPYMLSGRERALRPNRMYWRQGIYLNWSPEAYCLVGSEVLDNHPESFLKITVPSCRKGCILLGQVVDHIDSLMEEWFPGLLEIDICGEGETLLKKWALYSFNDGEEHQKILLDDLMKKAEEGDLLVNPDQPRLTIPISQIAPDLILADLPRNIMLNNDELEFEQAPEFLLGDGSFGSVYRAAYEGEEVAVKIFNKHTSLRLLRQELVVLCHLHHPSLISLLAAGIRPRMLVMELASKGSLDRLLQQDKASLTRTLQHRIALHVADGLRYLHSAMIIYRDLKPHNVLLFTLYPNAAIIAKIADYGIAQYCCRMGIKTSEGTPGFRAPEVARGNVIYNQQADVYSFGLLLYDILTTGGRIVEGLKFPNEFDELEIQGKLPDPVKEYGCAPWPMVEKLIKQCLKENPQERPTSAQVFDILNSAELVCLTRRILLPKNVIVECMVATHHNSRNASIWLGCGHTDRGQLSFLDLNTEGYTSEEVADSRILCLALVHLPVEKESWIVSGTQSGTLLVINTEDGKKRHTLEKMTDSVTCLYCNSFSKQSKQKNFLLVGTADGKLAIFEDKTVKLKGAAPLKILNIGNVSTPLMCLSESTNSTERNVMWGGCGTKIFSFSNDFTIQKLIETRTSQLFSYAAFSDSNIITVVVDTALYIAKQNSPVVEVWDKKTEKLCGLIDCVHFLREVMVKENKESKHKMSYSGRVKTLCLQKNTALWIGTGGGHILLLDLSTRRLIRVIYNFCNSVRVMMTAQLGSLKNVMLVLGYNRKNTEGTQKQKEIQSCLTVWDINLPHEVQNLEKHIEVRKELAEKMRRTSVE
T3 sequence (Q5S007 whole entry): as above

| SMILES | Phosphorylation level relative to solvent (%) (cellular pS935 assay) (LRRK2 phospho-Ser935) | Cellular pS935 (% @ 5 μM) (LRRK2 phospho-Ser935; [3]) [%] | % LRRKtide phosphorylation relative to solvent [1] [%] | pIC50 in vitro (lrrktide) [2] | IC50 [2] [µM] | IC50 (LRRK2 phospho-Ser935; [4]) [µM] | pIC50 cellular (pS935) (LRRK2 phospho-Ser935; [4]) |
| --- | --- | --- | --- | --- | --- | --- | --- |
| COc1cc2ncnc(Nc3ccc(OCc4ccccc4)cc3)c2cc1OC [EGFR/ErbB-2 inhibitor] | 67.43 | 67.43 | 68.24 | <5 | > 10 |  |  |
| CC(=O)O/N=C1/C(=C2/C(=O)Nc3cc(Br)ccc32)Nc2ccccc21 [GSK-3 inhibitor X] | 106.06 | 106.06 | 38.94 | <5 | > 10 |  |  |
| COc1cc(OC)c(C=C2C(O)=Nc3ccccc32)c(OC)c1 [IC261] | 78.81 | 78.81 | 89.62 |  | > 10 |  |  |
| O=C1Nc2ccccc2/C1=C1/Nc2ccccc2/C1=N\OCC(O)CO (centres unmarked) [Indirubin derivative E804] | 101.13 | 101.13 | 2.23 | 6.16 | 0.685 |  |  |
| COc1cc2ncnc(Nc3ccc(O)c(Br)c3)c2cc1OC [JAK3 inhibitor II] | 63.02 | 63.02 | 1.86 |  | 1.2 |  |  |
| Cc1[nH]c(/C=C2\C(=O)Nc3ccc(S(=O)(=O)N(C)c4cccc(Cl)c4)cc32)c(C)c1C(=O)N1CCN(C)CC1 [Met kinase inhibitor] | 52.43 | 52.43 | 2.05 | 7.37 | 0.043 |  |  |
| Nc1ccc2ncnc(NCCc3ccc(Oc4ccccc4)cc3)c2c1 [NF-KB activation inhibitor] | 65.67 | 65.67 | 57.28 | <5 | > 10 |  |  |
| CCC(=O)Nc1ccc2ncnc(Nc3cccc(Br)c3)c2c1 [PD 174265] | 67.74 | 67.74 | 32.67 | 5.05 | 8.87 |  |  |
| COc1cc2ncnc(N3CCN(C(=O)Nc4ccc(Oc5ccccc5)cc4)CC3)c2cc1OC [PDGF receptor tyrosine kinase inhibitor III] | 72.83 | 72.83 | 55.86 | <5 | > 10 |  |  |
| O=C1Nc2ccc3ncsc3c2/C1=C/c1cnc[nH]1 [PKR inhibitor] | 29.00 | 29 | 1.18 | 6.44 | 0.363 | 1.31 | 5.88 |
| CC(C)[C@H](CO)Nc1nc(Nc2cccc(Cl)c2)c2ncn(C(C)C)c2n1 [Purvalanol A] | 121.26 | 121.26 | 15.64 |  | 4.57 |  |  |

The next lines start with results.

| Phosphorylation level relative to solvent (%) (cellular pS935 assay) (LRRK2 phospho-Ser935) | Cellular pS935 (% @ 5 μM) (LRRK2 phospho-Ser935; [3]) [%] | % LRRKtide phosphorylation relative to solvent [1] [%] | pIC50 in vitro (lrrktide) [2] | IC50 [2] [µM] | IC50 (LRRK2 phospho-Ser935; [4]) [µM] | SMILES | pIC50 cellular (pS935) (LRRK2 phospho-Ser935; [4]) |
| --- | --- | --- | --- | --- | --- | --- | --- |
| 14.34 | 14.34 | 4.57 |  | 0.01 | 0.423 | CN(C)S(=O)(=O)c1ccc2c(c1)/C(=C/c1cc3c([nH]1)CCCC3)C(=O)N2 [SU6656] |  |
| 94.62 | 94.62 | 2.99 |  | 2.1 |  | COc1ccc2c(c1)/C(=C/c1cnc[nH]1)C(=O)N2 [SU9516] |  |
| 14.19 | 14.19 | 0.79 |  | 0.0109 | 0.316 | CCN(CC)CCNC(=O)c1c(C)[nH]c(/C=C2\C(=O)Nc3ccc(Cl)cc32)c1C [SU11652] |  |
